Data: PubChem BioAssay AID248 (DTP/NCI, 2004)
Where “and” joins values, the source holds several entries; their conditions need not be identical. Equal values may be shown once. Toxic doses and inconclusive results are not listed. Cut-off read from the data, not from the text of the source: active = T/C of 150% or more; inactive = T/C below 125%.

Test system: L1210 leukemia ip in BDF1 mice, survival T/C
Assay: NCI In Vivo Anticancer Drug Screen. Data for tumor model L1210 Leukemia (intraperitoneal) in B6D2F1 (BDF1) mice
Details: endpoint: mean survival time, higher = longer survival
Summary of the method: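 In this screen, tumor-bearing mice given compound are compared to those given vehicle, and their survival values are reported as a treated-to-control quotient.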

[1] = dose: 25.0 mg/kg/injection, schedule: Q04DX003 (ip), vehicle: saline
[2] = dose: 50.0 mg/kg/injection, schedule: Q04DX003 (ip), vehicle: saline
[3] = dose: 100.0 mg/kg/injection, schedule: Q04DX003 (ip), vehicle: saline
[4] = dose: 100.0 mg/kg/injection, schedule: Q04DX003 (ip), vehicle: saline with Tween-80
[5] = dose: 200.0 mg/kg/injection, schedule: Q04DX003 (ip), vehicle: saline with Tween-80
[6] = dose: 400.0 mg/kg/injection, schedule: Q04DX003 (ip), vehicle: saline with Tween-80
[7] = dose: 100.0 mg/kg/injection, schedule: Q01DX009 (ip), vehicle: saline
[8] = dose: 100.0 mg/kg/injection, schedule: Q04DX002 (ip), vehicle: Klucel (hydroxypropylcellulose) (HPC)
[9] = dose: 50.0 mg/kg/injection, schedule: Q04DX002 (ip), vehicle: saline
[10] = dose: 100.0 mg/kg/injection, schedule: Q04DX003 (ip), vehicle: Klucel (hydroxypropylcellulose) (HPC)
[11] = dose: 200.0 mg/kg/injection, schedule: Q04DX003 (ip), vehicle: Klucel (hydroxypropylcellulose) (HPC)
[12] = dose: 400.0 mg/kg/injection, schedule: Q04DX003 (ip), vehicle: Klucel (hydroxypropylcellulose) (HPC)
[13] = dose: 100.0 mg/kg/injection, schedule: Q01DX001 (ip), vehicle: saline
[14] = dose: 200.0 mg/kg/injection, schedule: Q01DX009 (ip), vehicle: Klucel (hydroxypropylcellulose) (HPC)

Measured: T/C

c1ccc(-c2ncc3cnccn23)cc1
inactive: [1] 100 % of control | [2] 102 % of control | [3] 98 % of control and 102 % of control

CCNc1nc(N)nc(Cl)c1N
inactive: [4] 107 % of control | [5] 100 % of control | [6] 105 % of control

C[C@@H]1C[C@@]2(C)C(=CC1=O)CC[C@@H]1C2=CC[C@@]2(C)[C@H]1CC[C@]2(C)O
inactive: [7] 100 % of control | dose: 100.0 mg/kg/injection, schedule: Q04DX003 (ip), vehicle: alcohol 103 % of control | dose: 200.0 mg/kg/injection, schedule: Q01DX009 (ip), vehicle: saline 100 % of control | dose: 200.0 mg/kg/injection, schedule: Q04DX003 (ip), vehicle: alcohol 103 % of control | dose: 400.0 mg/kg/injection, schedule: Q01DX009 (ip), vehicle: saline 100 % of control | dose: 400.0 mg/kg/injection, schedule: Q04DX003 (ip), vehicle: alcohol 97 % of control

CC(=O)OCCS(=O)(=O)c1c(Cl)c(Cl)c(Cl)c(Cl)c1Cl
inactive: [8] 95 % of control | dose: 200.0 mg/kg/injection, schedule: Q04DX002 (ip), vehicle: Klucel (hydroxypropylcellulose) (HPC) 88 % of control

CC(=O)OCC1OC(OC(C)C)[CH]([Hg][S]Cc2ccccc2)C(OC(C)=O)C1OC(C)=O (stereo not given)
inactive: dose: 0.5 mg/kg/injection, schedule: Q01DX015 (ip), vehicle: carboxymethylcellulose (CMC) 102 % of control | dose: 1.0 mg/kg/injection, schedule: Q01DX015 (ip), vehicle: carboxymethylcellulose (CMC) 98 % of control | dose: 2.0 mg/kg/injection, schedule: Q01DX015 (ip), vehicle: carboxymethylcellulose (CMC) 104 % of control | dose: 4.0 mg/kg/injection, schedule: Q01DX015 (ip), vehicle: carboxymethylcellulose (CMC) 96 % of control and 108 % of control | dose: 8.0 mg/kg/injection, schedule: Q01DX015 (ip), vehicle: carboxymethylcellulose (CMC) 88 % of control

c1cc[c]2c(c1)Oc1cccc[c]1[Sn]21[c]2ccccc2Oc2cccc[c]21
inactive: dose: 100.0 mg/kg/injection, schedule: Q01DX001 (ip), vehicle: other 91 % of control | dose: 200.0 mg/kg/injection, schedule: Q01DX001 (ip), vehicle: other 96 % of control | dose: 400.0 mg/kg/injection, schedule: Q01DX001 (ip), vehicle: other 89 % of control

CC(C)CCOC(CN)C(Cl)(Cl)Cl (stereo not given)
inactive: dose: 25.0 mg/kg/injection, schedule: Q01DX009 (ip), vehicle: saline 96 % of control and 107 % of control | dose: 25.0 mg/kg/injection, schedule: Q04DX002 (ip), vehicle: saline 98 % of control and 106 % of control | [1] 118 % of control | dose: 50.0 mg/kg/injection, schedule: Q01DX009 (ip), vehicle: saline 96 % of control and 100 % of control | [9] 95 % of control | [2] 102 % of control | [7] 98 % of control and 100 % of control | [3] 96 % of control and 109 % of control

NC(=O)Cn1cnc2c(N)ncnc21
inactive: [4] 95 % of control | [5] 95 % of control | [6] 101 % of control

CC1(C)C2=CCCC2CC/C1=N/NC(N)=O (stereo not given)
inactive: dose: 25.0 mg/kg/injection, schedule: Q04DX002 (ip), vehicle: Klucel (hydroxypropylcellulose) (HPC) 107 % of control | dose: 50.0 mg/kg/injection, schedule: Q04DX002 (ip), vehicle: Klucel (hydroxypropylcellulose) (HPC) 93 % of control | [8] 90 % of control

CCCC(=O)OCC1CO1 (stereo not given)
inactive: dose: 100.0 mg/kg/injection, schedule: Q01DX001 (ip), vehicle: Klucel (hydroxypropylcellulose) (HPC) 100 % of control | [10] 104 % of control | dose: 200.0 mg/kg/injection, schedule: Q01DX001 (ip), vehicle: Klucel (hydroxypropylcellulose) (HPC) 104 % of control | [11] 98 % of control | dose: 400.0 mg/kg/injection, schedule: Q01DX001 (ip), vehicle: Klucel (hydroxypropylcellulose) (HPC) 102 % of control | [12] 106 % of control

O=C(Nc1ccccc1Cl)Nc1ccccc1Br
inactive: dose: 100.0 mg/kg/injection, schedule: Q04DX002 (ip), vehicle: saline + alcohol 103 % of control | dose: 200.0 mg/kg/injection, schedule: Q04DX002 (ip), vehicle: saline + alcohol 96 % of control | dose: 400.0 mg/kg/injection, schedule: Q04DX002 (ip), vehicle: saline + alcohol 92 % of control

Cn1nc(C(N)=O)c(C#N)c1N
inactive: [9] 103 % of control | dose: 100.0 mg/kg/injection, schedule: Q04DX002 (ip), vehicle: saline 92 % of control | dose: 200.0 mg/kg/injection, schedule: Q04DX002 (ip), vehicle: saline 95 % of control

O=[N+]([O-])c1ccc(S)c(Cl)c1
inactive: dose: 12.5 mg/kg/injection, schedule: Q01DX009 (ip), vehicle: Klucel (hydroxypropylcellulose) (HPC) 104 % of control | dose: 25.0 mg/kg/injection, schedule: Q01DX009 (ip), vehicle: Klucel (hydroxypropylcellulose) (HPC) 104 % of control

O=c1[nH]cn[nH]1
inactive: dose: 100.0 mg/kg/injection, schedule: Q04DX003 (ip), vehicle: saline sonified 105 % of control | dose: 200.0 mg/kg/injection, schedule: Q04DX003 (ip), vehicle: saline sonified 114 % of control | dose: 400.0 mg/kg/injection, schedule: Q04DX003 (ip), vehicle: saline sonified 101 % of control

COc1cc(OC)cc(C2N(Cc3ccc(OC)c(OC)c3)CCN2Cc2ccc(OC)c(OC)c2)c1
inactive: dose: 100.0 mg/kg/injection, schedule: Q01DX009 (ip), vehicle: saline with Tween-80 100 % of control | [4] 104 % of control | dose: 200.0 mg/kg/injection, schedule: Q01DX009 (ip), vehicle: saline with Tween-80 108 % of control | [5] 100 % of control | dose: 400.0 mg/kg/injection, schedule: Q01DX009 (ip), vehicle: saline with Tween-80 101 % of control | [6] 98 % of control

COc1cc(C)nc2ccc(Cc3ccc4nc(C)cc(OC)c4c3)cc12
inactive: [13] 94 % of control | dose: 200.0 mg/kg/injection, schedule: Q01DX001 (ip), vehicle: saline 93 % of control | dose: 400.0 mg/kg/injection, schedule: Q01DX001 (ip), vehicle: saline 96 % of control

CC(=O)Nc1ccc(/C=N/NC(=O)c2cccc3ccccc23)cc1
inactive: [13] 86 % of control

O=C(O)CCC1(CCC(=O)O)OCCO1.[Ag]
inactive: dose: 9.38 mg/kg/injection, schedule: Q01DX001 (ip), vehicle: other 97 % of control | dose: 18.75 mg/kg/injection, schedule: Q01DX001 (ip), vehicle: other 97 % of control | dose: 37.5 mg/kg/injection, schedule: Q01DX001 (ip), vehicle: other 100 % of control

CC(=O)Nc1c(F)c(F)c(N=Nc2ccccc2)c(F)c1F
inactive: dose: 100.0 mg/kg/injection, schedule: Q01DX001 (ip), vehicle: carboxymethylcellulose (CMC) 100 % of control | dose: 200.0 mg/kg/injection, schedule: Q01DX001 (ip), vehicle: carboxymethylcellulose (CMC) 102 % of control | dose: 400.0 mg/kg/injection, schedule: Q01DX001 (ip), vehicle: carboxymethylcellulose (CMC) 100 % of control

O=C(Nc1ccccc1F)c1ccc(Cl)c(Cl)c1
inactive: [10] 98 % of control | [14] 92 % of control | [11] 96 % of control | dose: 400.0 mg/kg/injection, schedule: Q01DX009 (ip), vehicle: Klucel (hydroxypropylcellulose) (HPC) 86 % of control | [12] 93 % of control

Cc1cc(=O)oc2cc(OC(=O)Nc3ccc(F)c([N+](=O)[O-])c3)ccc12
inactive: dose: 100.0 mg/kg/injection, schedule: Q01DX009 (ip), vehicle: Klucel (hydroxypropylcellulose) (HPC) 101 % of control | [14] 107 % of control

CCCCCCCCCCCCCCCCSC(=N)N
inactive: dose: 100.0 mg/kg/injection, schedule: Q04DX003 (ip), vehicle: carboxymethylcellulose (CMC) 91 % of control | dose: 200.0 mg/kg/injection, schedule: Q04DX003 (ip), vehicle: carboxymethylcellulose (CMC) 93 % of control

CS(=O)(=O)NC1=NCCN1[N+](=O)[O-]
inactive: dose: 10.0 mg/kg/injection, schedule: Q01DX009 (ip), vehicle: Klucel (hydroxypropylcellulose) (HPC) 88 % of control | dose: 20.0 mg/kg/injection, schedule: Q01DX009 (ip), vehicle: Klucel (hydroxypropylcellulose) (HPC) 91 % of control | dose: 20.0 mg/kg/injection, schedule: Q04DX003 (ip), vehicle: Klucel (hydroxypropylcellulose) (HPC) 98 % of control | dose: 40.0 mg/kg/injection, schedule: Q01DX009 (ip), vehicle: Klucel (hydroxypropylcellulose) (HPC) 98 % of control | dose: 40.0 mg/kg/injection, schedule: Q04DX003 (ip), vehicle: Klucel (hydroxypropylcellulose) (HPC) 101 % of control

C/C=N/N(C)C=O
inactive: [3] 104 % of control | dose: 200.0 mg/kg/injection, schedule: Q04DX003 (ip), vehicle: saline 119 % of control
